# Assay results taken from US10538517B2, “Quinolone derivatives as FGFR inhibitors” (Principia Biopharma, Inc., priority 2015, dated 2020).
# Tested on: SNU-16 cells
# Assay: Inhibition of FGFR2-dependent cell growth (Cell-titer Glo)
# Assay type: cell-based
# Details: Homo sapiens, SNU-16, 72 h, 72 hrs incubation, cell viability, read-out: SNU16 IC50 values
# Experimental: The cell-based effects of FGFR inhibitors were determined by measuring inhibition of FGFR-dependent cell line growth. The cell lines SNU-16 was used for these assays. […] Percent inhibition of cell growth was calculated as a percentage of untreated cell viability. The percent inhibition was plotted as a function of log compound concentration. The IC50 was then calculated for each compound using Prism software from GraphPad.
row,SMILES,IC50 [nM]
1,"COc1cc(OC)c(Cl)c(-c2cc3cnc(N)nc3n(CCc3cccc(NC(=O)C(C#N)=CC(C)(C)C)c3)c2=O)c1 [Cpd 50 (table 2), N-(3-(2-(2-amino-6-(2-chloro-3,5-dimethoxyphenyl)-7-oxopyrido[2,3-d]pyrimidin-8(7H)-yl)ethyl)phenyl)-2-cyano-4,4-dimethylpent-2-enamide]",4.6
2,"COc1cc(OC)c(Cl)c(-c2cc3cnc(NCC(C)(C)O)nc3n(CCc3cccc(NC(=O)C(C#N)=CC(C)(C)C)c3)c2=O)c1 [Cpd 52 (table 2), N-(3-(2-(6-(2-chloro-3,5-dimethoxyphenyl)-2-((2-hydroxy-2-methylpropyl)amino)-7-oxopyrido[2,3-d]pyrimidin-8(7H)-yl)ethyl)phenyl)-2-cyano-4,4-dimethylpent-2-enamide]",15.7
3,"CNc1ncc2cc(-c3cc(OC)cc(OC)c3Cl)c(=O)n(CCc3cccc(NC(=O)C(C#N)=CC(C)(C)N4CCC(O)CC4)c3)c2n1 [Cpd 53 (table 2), N-(3-(2-(6-(2-chloro-3,5-dimethoxyphenyl)-2-(methylamino)-7-oxopyrido[2,3-d]pyrimidin-8(7H)-yl)ethyl)phenyl)-2-cyano-4-(4-hydroxypiperidin-1-yl)-4-methylpent-2-enamide]",5.1
4,"CNc1ncc2cc(-c3cc(OC)cc(OC)c3Cl)c(=O)n(CCc3ccc(NC(=O)C(C#N)=CC(C)(C)N4C[C@@H](C)N(C)[C@@H](C)C4)cc3)c2n1 [Cpd 60 (table 2), N-(4-(2-(6-(2-chloro-3,5-dimethoxyphenyl)-2-(methylamino)-7-oxopyrido[2,3-d]pyrimidin-8(7H)-yl)ethyl)phenyl)-2-cyano-4-methyl-4-((3S,5R)-3,4,5-trimethylpiperazin-1-yl)pent-2-enamide]",5.6
5,"CNc1ncc2cc(-c3cc(OC)cc(OC)c3Cl)c(=O)n(CCc3ccc(NC(=O)C(C#N)=CC(C)(C)N4CCN(C5COC5)CC4)cc3)c2n1 [Cpd 61 (table 2), N-(4-(2-(6-(2-chloro-3,5-dimethoxyphenyl)-2-(methylamino)-7-oxopyrido[2,3-d]pyrimidin-8(7H)-yl)ethyl)phenyl)-2-cyano-4-methyl-4-(4-(oxetan-3-yl)piperazin-1-yl)pent-2-enamide]",4.3
6,"CNc1ncc2cc(-c3cc(OC)cc(OC)c3Cl)c(=O)n(CCc3csc(NC(=O)C(C#N)=CC(C)(C)C)n3)c2n1 [Cpd 67 (table 2), N-(4-(2-(6-(2-chloro-3,5-dimethoxyphenyl)-2-(methylamino)-7-oxopyrido[2,3-d]pyrimidin-8(7H)-yl)ethyl)thiazol-2-yl)-2-cyano-4,4-dimethylpent-2-enamide]",936
7,"COc1cc(OC)c(Cl)c(-c2cc3cnc(NCCN4CCOCC4)nc3n(CCc3ccc(NC(=O)C(C#N)=CC(C)(C)C)cc3)c2=O)c1 [Cpd 68 (table 2), N-(4-(2-(6-(2-chloro-3,5-dimethoxyphenyl)-2-((2-morpholinoethyl)amino)-7-oxopyrido[2,3-d]pyrimidin-8(7H)-yl)ethyl)phenyl)-2-cyano-4,4-dimethylpent-2-enamide]",35.5
8,"CNc1ncc2cc(-c3cc(OC)cc(OC)c3Cl)c(=O)n(CCc3cnc(NC(=O)C(C#N)=CC(C)(C)C)cn3)c2n1 [Cpd 71 (table 2), N-(5-(2-(6-(2-chloro-3,5-dimethoxyphenyl)-2-(methylamino)-7-oxopyrido[2,3-d]pyrimidin-8(7H)-yl)ethyl)pyrazin-2-yl)-2-cyano-4,4-dimethylpent-2-enamide]",79.6
9,"CNc1ncc2cc(-c3cc(OC)cc(OC)c3Cl)c(=O)n(CCCc3ccc(C=C(C#N)C(=O)NC(C)(C)C)cc3)c2n1 [Cpd 75 (table 2), N-(tert-butyl)-3-(4-(3-(6-(2-chloro-3,5-dimethoxyphenyl)-2-(methylamino)-7-oxopyrido[2,3-d]pyrimidin-8(7H)-yl)propyl)phenyl)-2-cyanoacrylamide]",87.2

# Tested on: SNU-16 human gastric cancer cell line xenograft
# Assay: Human gastric tumor (HGS) xenograft model
# Assay type: in vivo, mice
# Details: day 42 after inoculation, 20/kg of compound (vehicle group 645)
# Experimental: Human Gastric Tumor Model:
# SNU-16 human gastric cancer cell line can be used to generate a xenograft model to determine the effects of a FGFR inhibitor of the present disclosure (test compound) as a single agent treatment to target FGFR-dependent tumor growth. SNU-16 cells are grown in tissue culture as described in Example 2 above. For tumor inoculation, approximately 1×10^7 cells are mixed with Matrigel (1:1) and are implanted into the rear flank of immuno compromised Balb/c nu/nu mice. Tumor-bearing mice are monitored twice weekly in two dimensions using a caliper and the volume expressed in mm^3 using the formula: V=0.5 a×b^2 where a and b are the long and short diameters of the tumor respectively. Once tumor volume reaches a mean average of 175 mm^3 mice are randomized into 3 groups (n=8-10 per group) receiving either vehicle control (0.5% methyl cellulose w/w) or the test compound by oral gavage. Dosing continues for 5-21 days with tumor volumes measured daily or every other day. It is expected that tumor growth will be inhibited in animals treated with the test compound. […] Inhibition of FGFR pathway can be assessed by detection of FGFR auto phosphorylation activity. […] Tumor samples are collected at 8 h or 12 h post the last dosing and FGFR auto phosphorylation activity is determined. […]
row,SMILES,tumor size [mm3]
1,"C=CC(=O)N1CCN(CCCn2c(=O)c(-c3c(Cl)c(OC)cc(OC)c3Cl)cc3cnc(NC)nc32)CC1 [8-(3-(4-acryloylpiperazin-1-yl)propyl)-6-(2,6-dichloro-3,5-dimethoxyphenyl)-2-(methylamino)pyrido[2,3-d]pyrimidin-7(8H)-one]",55
